# How the values were obtained:
# [1] = target: T1, Probable G-protein coupled receptor 142 (Homo sapiens) (UniProt Q7Z601); test: Agonist activity at human GPR142 receptor expressed in HEK293 cells assessed as accumulation of inositol phosphate incubated for 1 hr followed by IP1-d2 addition by HTRF assay relative to control; assay type: functional, cell-based; details: filed as agonist
# T1 sequence (whole entry): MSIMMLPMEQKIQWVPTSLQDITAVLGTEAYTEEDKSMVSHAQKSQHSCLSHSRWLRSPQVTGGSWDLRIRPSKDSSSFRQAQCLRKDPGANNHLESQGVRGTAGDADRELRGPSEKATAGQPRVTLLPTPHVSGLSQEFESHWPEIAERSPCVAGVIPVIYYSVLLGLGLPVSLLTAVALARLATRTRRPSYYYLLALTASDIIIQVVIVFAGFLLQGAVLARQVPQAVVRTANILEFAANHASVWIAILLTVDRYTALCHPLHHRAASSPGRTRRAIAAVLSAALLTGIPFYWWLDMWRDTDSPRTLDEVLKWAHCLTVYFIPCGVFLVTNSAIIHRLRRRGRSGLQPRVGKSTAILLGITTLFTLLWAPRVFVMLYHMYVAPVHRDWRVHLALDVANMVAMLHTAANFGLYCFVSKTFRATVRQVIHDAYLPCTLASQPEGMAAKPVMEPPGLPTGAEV
# [2] = target: T2, Probable G-protein coupled receptor 142 (Homo sapiens, UniProt Q7Z601); test: Agonist activity at human GPR142 receptor expressed in HEK293 cells assessed as accumulation of inositol phosphate incubated for 1 hr followed by IP1-d2 addition by HTRF assay; assay type: functional, cell-based
# T2 sequence (Q7Z601 whole entry): T1 sequence (whole entry)
# Mus musculus = test: Antidiabetic activity in po dosed lean C57BL/6J mouse assessed as reduction in glucose level administered 90 mins prior to glucose challenge measured for 60 mins by IPGTT; assay type: functional; details: 2.5 h, time 150 min
SMILES,Efficacy [1],EC50 [2],ED50 (Mus musculus)
CN(C(=O)c1cccc(C(F)(F)F)c1)[C@@H]1CCC[C@H](c2nnc(-c3cnc4n3CCOC4)[nH]2)C1,120%,< 120 nM,
Cc1ncn(C)c1-c1nnc([C@@H]2CCC[C@H](N(C)C(=O)c3cccc(Cl)c3)C2)[nH]1,120%,,
Cc1ncc(-c2nnc([C@H]3CCC[C@@H](N(C)C(=O)c4cccc(C(F)(F)F)c4)C3)[nH]2)[nH]1,120%,< 120 nM,
Cc1ncn(CC(F)F)c1-c1nnc([C@H]2CCC[C@@H](N(C)C(=O)c3cccc(C(F)(F)F)c3)C2)[nH]1,120%,< 120 nM,
Cc1ncn(C)c1-c1nnc([C@H]2CCC[C@@H](N(C)C(=O)c3cccc(Cl)c3)C2)[nH]1,110%,,0.25 mg/kg
Cc1nc[nH]c1-c1nnc([C@H]2CCC[C@@H](N(C)C(=O)c3cccc(C(F)(F)F)c3)C2)[nH]1,120%,< 120 nM,
Cc1ncc(-c2nnc([C@H]3CCC[C@@H](N(C)C(=O)c4cccc(Cl)c4)C3)[nH]2)n1C,120%,< 120 nM,
Cc1ncn(C)c1-c1nnc([C@H]2CCC[C@@H](N(C)C(=O)c3cccc(C(F)(F)F)c3)C2)[nH]1,120%,< 120 nM,
COCCn1cnc(C)c1-c1nnc([C@H]2CCC[C@@H](N(C)C(=O)c3cccc(Cl)c3)C2)[nH]1,120%,< 120 nM,
Cc1nc[nH]c1-c1nnc([C@H]2CCC[C@@H](N(C)C(=O)c3cccc(OC(F)(F)F)c3)C2)[nH]1,120%,< 120 nM,
Cc1ncc(-c2nnc([C@H]3CCC[C@@H](N(C)C(=O)c4cccc(C(F)(F)F)c4)C3)[nH]2)n1C,120%,< 120 nM,
Cc1nc[nH]c1-c1nnc([C@H]2CCC[C@@H](N(C)C(=O)c3cccc(Cl)c3)C2)[nH]1,120%,< 120 nM,

# From ChEMBL document CHEMBL4742389, “Cyclohexyl benzamide compounds” (2019)
